Measurements: patent US20150299648A1, “IMPROVED CULTIVATION MEDIA AND PROCESS FOR IMPROVED PROTEIN PRODUCTION BY PICHIA STRAINS” (priority 2012, published 2015)
Entries after “also recorded” stand apart in the source; their conditions may differ.

Tests used:
[1] = tested on: P. pastrois strain yGLY21058; assay: Fermentability of sugars or sugar alcohols on M agar plate; assay type: cell-based, Pichia pastoris; details: 6 days at 30° C.; for Fermentability category from colony formation on the plate: minimal agar plate; for Growth on M agar: single carbon source 1% w/v
Method: The 1 mL of RCB (Research Cell Bank in 20% of glycerol) for P. pastrois strain yGLY21058 producing glycosylated insulin precursor (GIP) was inoculated in 200 mL of Seed medium (4% glycerol, 1% yeast extract, 2% soytone, 1.34% YNB without amino acids, 0.23% K2HPO4, 1.19% KH2PO4, 8 μg/L biotin) and cultivated for 48 h at 24° C. The cell pellet was harvested by centrifugation at 4,000 rpm for 10 min and re-suspended with PBS buffer (pH 7.4) to wash the cell twice. The 0.1 mL of cell suspension with wash buffer was transferred and spread onto the minimal agar plate containing each sugar or sugar alcohol (1% w/v), which is listed in Table 1.
YPD (1% yeast extract, 2% yeast peptone, and 1% glucose) agar plate was used for the positive control and a minimal agar plate without carbon sources (M) was used for negative control. Growth of Pichia pastoris on M agar plate containing single carbon source was categorized as no (−), slow (+), moderate (++), and fast (+++) colony formation for 6 days in Table 1.

[2] = tested on: P. pastoris YGLY21058 strain producing glycosylated insulin precursor (GIP); assay: Screening of sugars and sugar alcohols as osmoprotectants in fed-batch cultivation; assay type: cell-based, Pichia pastoris; details: for Index of cell lysis (double stranded DNA released into culture medium): 50 g/L in initial batch BSGY, 80 h of induction; for Intact GIP molecule after 80 h-induction (SDS-PAGE): 50 g/L in initial batch medium of BSGY
Method: The P. pastoris YGLY21058 strain was cultivated in 1 L glass bioreactors (DASGIP, Germany). For fermentation in 1 L bioreactor, a vial (1 mL) of RCB (Research Cell Bank) was inoculated into 200 mL of Seed medium in 1 L-baffled flask. The culture incubated at 24° C., while shaking on an orbital shaker at 180 rpm for 48±4 h. The bioreactor was inoculated with a 10% volumetric ratio of seed to initial BSGY medium. Cultivation conditions were following: temperature set at 24±0.5° C., pH controlled at 6.5±0.1 with 30% ammonium hydroxide, dissolved oxygen was maintained at 20% of saturation by cascading agitation rate on the addition of pure oxygen to the fixed airflow rate of 0.7 vvm. After depletion of the initial glycerol (4%), a 50% glycerol solution containing 12.5 mL/L of PTM1 salts (6.5 g FeSO4.7H2O, 2.0 g ZnCl2, 0.6 g CuSO4.5H2O, 3.0 g MnSO4.7H2O, 0.5 g CoCl2.6H2O, 0.2 g NaMoO4.2H2O, 0.2 g biotin, 80 mg NaI, 20 mg H3BO4 per L) was fed constantly at an initial rate of 0.08 h^−1 for 8 h. Induction was initiated after a 30 min starvation phase when methanol was fed. Methanol was fed constantly starting at 1.33 g/L/h under methanol limited condition. Agitation speed was changed from cascade mode with agitation speed and pure oxygen.
For comparisons, each sugar or sugar alcohol was added at 50 g/L in initial batch medium of BSGY. In case of control without sugar supplementation (BSGY medium only), glycosylated insulin precursor (GIP) was detectable at 58 h of induction, but not detected at 80 h of induction due to most likely proteolytic degradation caused by heavy cell lysis (Lanes 1 and 2 of FIG. 2 A).

[3] = Osmolality of sugar and sugar alcohol solutions (osmometer); assay type: physicochemical; details: 500 mM in water
Method: The sugar and sugar alcohol solutions used as osmoprotectant supplements were prepared at 500 mM in water and their osmolalities were measured using Osmometer (Multi-somotte, Model 2430, Precision Systems Inc, MA, USA). The osmolality of solution was directly proportional to the concentration of component in solution. For instance there was a linear relationship between sorbitol concentration (mM) and osmolality of the solution (mOsm/kg) as shown in FIG. 1A. The osmolalities of maltitol, sorbitol, glycerol, and glucose at 500 mM in water were 590±4, 544±3, 541±3, and 568±0 mOsm/kg respectively (FIG. 1B). The osmolaties of sorbose, mellibiose, ribose, quinic acid and myo-inositol at 500 Mm in water were (480±5), (500±5), (470±5), (480±5) AND (510±10), respectively.

[4] = tested on: P. pastoris YGLY 21058 strain; assay: Fermentability of sorbitol and maltitol determined by HPLC; assay type: cell-based, Pichia pastoris; details: BSGY; maltitol 50 g/L; methanol induction phase
Method: The P. pastoris YGLY 21058 strain was cultivated in 1 L bioreactor and 50 g/L of maltitol was mixed in BSGY medium. The samples were taken at the beginning of fermentation, at the end of glycerol fed-batch before adding maltitol, and two different time-points in methanol induction phase, as shown in FIG. 3. The supernatant was separated by the centrifugation at 13,000 rpm for 1 minutes using micro-centrifuge. The samples properly diluted with distilled water were filtered using 0.2 μm-filter and the residual concentrations of sorbitol and maltitol were determined by HPLC using AMINEX HPX-87H column. The residence times (RTs) for sorbitol and maltitol were 11.5 and 9.3 min respectively. The data were shown in FIG. 3 as two independent runs of cultivation.

With O=C[C@@H](O)[C@H](O)[C@H](O)CO [D-Arabinose] the “Fermentability category from colony formation on the plate” value (from here on “Fermentability category”) [1] was “strict non-fermentable substrates”, the “Growth on M agar” value [1] was “−” and the “Index of cell lysis (double stranded DNA released into culture medium)” value (from here on “Index of cell lysis”) [2] was “much lower than that of control”. The “Intact GIP molecule after 80 h-induction (SDS-PAGE)” value (from here on “Intact GIP molecule”) [2] was “intact GIP molecule was maintained”.

For O=C(O)[C@H](O)[C@@H](O)[C@H](O)[C@H](O)CO [D-Gluconate], the “Fermentability category” value [1] was “very slow colony formation” and the “Growth on M agar” value [1] was “+”.

With O=C1O[C@H](CO)[C@@H](O)[C@H](O)[C@H]1O [D-Glucono-1,5-lactone] the “Fermentability category” value [1] was “strict non-fermentable substrates” and the “Growth on M agar” value [1] was “−”.

In the case of O=C[C@H](O)[C@@H](O)[C@H](O)[C@H](O)CO [D-Glucose], the Osmolality of solution [3] is reported as 568±0 mOsm/kg and the “Growth on M agar” value [1] is reported as “+++”.

In the case of OC[C@H]1O[C@H](O[C@H]2[C@H](O)[C@@H](O)[C@H](O)O[C@@H]2CO)[C@H](O)[C@@H](O)[C@@H]1O [D-Maltose], the “Fermentability category” value [1] is reported as “strict non-fermentable substrates”, the “Growth on M agar” value [1] is reported as “−” and the “Robustness of Pichia production strains” value ([2]; methanol induction phase of cultivation) is reported as “significantly improved the robustness”.

In the case of OC[C@H]1O[C@H](OCC2O[C@@H](O)[C@H](O)[C@@H](O)[C@@H]2O)[C@H](O)[C@@H](O)[C@H]1O (stereo partly drawn) [D-Melibiose], the Osmolality of solution [3] is reported as 500±5 mOsm/kg, the “Fermentability category” value [1] is reported as “very slow colony formation” and the “Growth on M agar” value [1] is reported as “+”. The “Intact GIP molecule” value [2] was “intact GIP molecule was maintained”.

In the case of O=C(O)[C@]1(O)C[C@@H](O)[C@@H](O)[C@H](O)C1 [D-Quinic acid], the Osmolality of solution [3] is reported as 480±5 mOsm/kg, the “Fermentability category” value [1] is reported as “strict non-fermentable substrates” and the “Growth on M agar” value [1] is reported as “−”.

In the case of OC[C@H]1O[C@H](OC[C@H]2O[C@H](O[C@]3(CO)O[C@H](CO)[C@@H](O)[C@@H]3O)[C@H](O)[C@@H](O)[C@@H]2O)[C@H](O)[C@@H](O)[C@H]1O [D-Raffinose], the “Growth on M agar” value [1] is reported as “++”.

With OC[C@@H](O)[C@@H](O)[C@@H](O)CO [D-Ribitol] the “Fermentability category” value [1] was “strict non-fermentable substrates” and the “Growth on M agar” value [1] was “−”.

In the case of O=C[C@H](O)[C@H](O)[C@H](O)CO [D-Ribose], the Osmolality of solution [3] is reported as 470±5 mOsm/kg, the “Fermentability category” value [1] is reported as “very slow colony formation” and the “Growth on M agar” value [1] is reported as “+”. For the same compound, the “Index of cell lysis” value [2] was “much lower than that of control” and the “Intact GIP molecule” value [2] was “intact GIP molecule was maintained”.

In the case of OC[C@@H](O)[C@@H](O)[C@H](O)[C@@H](O)CO [D-Sorbitol], the “Consumption / fermentability in fed-batch fermentation (residual concentration by HPLC)” value [4] is reported as “actively metabolized; also recorded: highly fermentable”, the Osmolality of solution [3] is reported as 544±3 mOsm/kg and the “Growth on M agar” value [1] is reported as “+++”.

In the case of O=C[C@H](O)[C@@H](O)[C@H](O)CO [D-Xylose], the “Fermentability category” value [1] is reported as “very slow colony formation” and the “Growth on M agar” value [1] is reported as “+”.

In the case of OCC(O)CO [Glycerol], the Osmolality of solution [3] is reported as 541±3 mOsm/kg and the “Growth on M agar” value [1] is reported as “+++”.

With OC[C@H](O)C(O)[C@@H](O)CO [L-Arabitol] the “Fermentability category” value [1] was “strict non-fermentable substrates” and the “Growth on M agar” value [1] was “−”.

With O=C(CO)[C@@H](O)[C@H](O)[C@@H](O)CO [L-Sorbose] the Osmolality of solution [3] was 480±5 mOsm/kg, the “Fermentability category” value [1] was “very slow colony formation” and the “Growth on M agar” value [1] was “+”. For the same compound, the “Intact GIP molecule” value [2] was “intact GIP molecule was maintained”.

With OC[C@@H](O)[C@H](O)[C@@H](O)CO [Xylitol] the “Fermentability category” value [1] was “strict non-fermentable substrates” and the “Growth on M agar” value [1] was “−”.

For O[C@H]1[C@H](O)[C@@H](O)[C@H](O)[C@@H](O)[C@H]1O [myo-Inositol], the Osmolality of solution [3] was 510±10 mOsm/kg, the “Fermentability category” value [1] was “very slow colony formation” and the “Growth on M agar” value [1] was “+”. The “Index of cell lysis” value [2] was “much lower than that of control” and the “Intact GIP molecule” value [2] was “intact GIP molecule was maintained”.

With OC[C@H]1O[C@H](O[C@H]2O[C@H](CO)[C@@H](O)[C@H](O)[C@H]2O)[C@H](O)[C@@H](O)[C@@H]1O [α,α-Trehalose] the “Growth on M agar” value [1] was “++”.

In the case of Inulin, the “Fermentability category” value [1] is reported as “very slow colony formation” and the “Growth on M agar” value [1] is reported as “+”.
